PMC8597046, “Use of Mixture Dosing and Nonlinear Mixed Effect Modeling of Eight Environmental Contaminants in Rabbits to Improve Extrapolation Value of Toxicokinetic Data” (Environmental Health Perspectives, 2021)

How the values were obtained:
[1] = TK assay, intravenous mixture dosing: serum concentrations and noncompartmental analysis (sparse data); conditions: for concentration at 167.92 h: rabbit 8, 167.92 h; for concentration at 671.96 h: rabbit 10, 671.96 h; for concentration at 672 h: rabbit 11, 672.00 h; for concentration at 671.83 h: rabbit 12, 671.83 h; for Serum concentration: IV
Experimental: The experiment was carried out on thirty 10-wk old female New Zealand white rabbits (INRA 1777 line) weighing 2.37±0.14kg . […] Blood samples were taken at the designated time points post IV and oral administration: 15 min, 30 min, 1 h, 2 h, 4 h, 8 h, 12 h, 24 h, 3 d, 7 d, and 28 d from groups of 3 or 6 rabbits at each sampling time. Each rabbit was sampled 3 times and 3 rabbits were sampled at each sampling time, except at 30 min post administration, when 6 samples were collected to provide a sufficient blood volume for assaying the compounds. The doses and assay time points were selected to allow the calculation of TK parameters (Table 1) based on preliminary TK data. Residual concentrations of the compounds, and their possible evolution over time, were determined by sampling six entirely untreated rabbits during the TK study on the day of drug administrations, then 14 d and 28 d later.
The volume administered was adjusted to the animal’s body weight (BW) recorded the day before.
Intravenous administrations were performed via an indwelling catheter (22G Terumo, 0.9×25mm ) just after its insertion into an ear vein. […] For oral administrations, the mixture of all compounds ( 4mL/kg ) was deposited directly in the mouth of rabbits using a catheter (22G BD Insyte 22G, 0.9×25mm ). Prior to the study, the rabbits had been trained to gradually swallow water and then corn oil.
Blood samples were collected from the auricular artery using a 20 G needle ( 0.9×25mm ) and a dry tube. The first two blood samples were 8–10mL in volume, whereas a large volume (about 20mL ) was obtained antemortem immediately after electrical stunning (95LX rabbit stunner; Burdis), followed by exsanguination.
Serum concentration-time profiles of the different compounds were first analyzed using a noncompartmental approach (NCA) involving a sparse data option. Sparse data methodology consists of calculating TK parameters based on the mean profile of all the subjects in the dataset and is appropriate when a rich data series cannot be obtained, as in the present experiment ([FDA 1999]). The area under the concentration time curve ( AUC0−tlast ) and the area under the first moment curve ( AUMC0−tlast ) from dosing time ( t=0 ) to the time of the last measurable concentration were calculated using the linear trapezoidal rule after IV and oral dosing. The area under the serum concentration time curve from dosing time to infinity ( AUC0−inf ) was obtained by adding to AUC0−tlast the area extrapolated from the time of the last measurable concentration to infinity by dividing the last quantifiable serum concentration by the slope of the terminal phase ( λZ ), as estimated by linear regression using the best fit option of Phoenix®.
The clearance (CL) and apparent clearance (CL_F) were respectively estimated after IV and oral administrations by dividing the administered dose by the AUC0−inf calculated for each analyte.
The terminal half-life (HL) was estimated with Equation 1: (1) HL=0.69315/λZ where λz is the slope of the terminal phase.
The mean residence time (MRT) was estimated using Equation 3: (3) MRT=AUMCiv0−tlast /AUCiv0−tlast , where AUCMiv0−tlast and AUCiv0−tlast are the values of AUMC0−tlast and AUC0−tlast obtained after IV dosing.
The steady-state volume of distribution ( VSS ) was estimated using Equation 4: (4) VSS=CL×MRT, with CL and MRT as defined above.

[2] = Chronic exposure: daily oral mixture for 17 wk, steady-state serum concentrations; conditions: for concentration at 17 wk: female, New Zealand white (INRA 1777 line), rabbit, in vivo, po
Experimental: The objective of this preliminary experiment was to check the ability of our approach to determine the loading and maintenance doses of the eight compounds to be administered simultaneously by oral route to reproduce in female rabbits targeted serum concentrations. The experiment was carried out on thirty-two 2-wk old female New Zealand white rabbits (INRA 1777 line) randomly allocated to a treatment and control groups of 16 rabbits weighing 309±45g and 298±62g , respectively. The treated rabbits were orally administrated a mixture of the eight compounds at a dosage corresponding to the sum of the loading and daily maintenance doses followed by daily administrations of the maintenance dose for 17 wk (see the “Estimation of the doses” section). The control group was orally administrated the vehicle for the same duration.
The volume of the maintenance dosing solution ( 1mL/kg ) was weekly adjusted to the mean BW estimated from the known pattern of growth of the INRA 1777 rabbit line. Oral dosing and antemortem blood sampling were performed as previously described.
Blood samples were left to clot for about 20–30 min at ambient temperature and centrifuged for 20 min at 3,000×g at 25°C. The separated serum was stored in glass tubes at −20°C until assayed.

[3] = Estimation of loading and daily maintenance doses and NLME model simulations; set-up: species or system female rabbits; conditions: oral; for Computed maintenance dose: daily; for Computed maintenance dose / Computed loading dose: scaled to the targeted CSS of Table 6; for Daily maintenance dose: to maintain serum concentration of 1 ng/mL, daily CL×Css/F; for Daily maintenance dose / Loading dose: DEHP dose for MEHP in serum; for Loading dose: to rapidly attain serum concentration of 1 ng/mL, Vss×Css/F
Experimental: The ultimate goal of this TK investigation was to compute a dosage regimen that allowed targeted steady-state serum concentrations to be attained rapidly for a planned TK/TD trial on the reprotoxic effect of a mixture of environmental contaminants in female rabbits. […] With that in mind, the loading and the daily maintenance doses of each compound were evaluated using Equations 12 and 13, respectively.
This risk was also the reason why the NLME model was employed to simulate the time development of the amounts of compounds in the central and peripheral compartments following administration of the daily maintenance dose of each compound over the same duration.
The loading and maintenance doses computed to ensure a nominal CSS of 1 ng/mL were scaled to determine the doses to be administrated by oral route to female rabbits to maintain the targeted CSS .

[4] = female, New Zealand white (INRA 1777 line), rabbit, in vivo, iv
[5] = female, New Zealand white (INRA 1777 line), rabbit, in vivo, iv, VSS, IV mixture dosing, NCA, n=12
[6] = female, New Zealand white (INRA 1777 line), rabbit, in vivo, iv, VZ, IV mixture dosing, NCA, n=12
[7] = female, New Zealand white, rabbit, in vivo, iv, Serum concentration, rabbit 1, 24.03 h
[8] = female, New Zealand white, rabbit, in vivo, iv, Serum concentration, rabbit 2, […]
[9] = female, New Zealand white, rabbit, in vivo, iv, Serum concentration, rabbit 3, […]
[10] = female, New Zealand white, rabbit, in vivo, iv, Serum concentration, rabbit 4, 72.00 h
[11] = female, New Zealand white, rabbit, in vivo, iv, Serum concentration, rabbit 5, 72.03 h
[12] = female, New Zealand white, rabbit, in vivo, iv, Serum concentration, rabbit 6, 71.97 h
[13] = female, New Zealand white, rabbit, in vivo, iv, Serum concentration, rabbit 7, 168.00 h
[14] = female, New Zealand white, rabbit, in vivo, iv, Serum concentration
[15] = female, New Zealand white, rabbit, in vivo, iv, Serum concentration, rabbit 9, 168.00 h

## Brc1ccc(Oc2ccc(Br)cc2Br)c(Br)c1 [BDE-47, 2,2′,4,4′-tetrabromodiphenyl ether]
[1]; [4]
  AUC(0-inf): 42.2 µM·h
  Cmax: 1820 nM
  MRT: 86.9 h
  clearance: 3.83 mL/min/kg
  half-life: 162 h
[1]; [5]
  Vd: 20.3 L/kg
[1]; [6]
  Vd: 54.8 L/kg
[1]; [7]
  concentration at 24.03 h: 120 nM
[1]; [8]
  concentration at 24 h: 140 nM
[1]; [9]
  concentration at 24 h: 130 nM
[1]; [10]
  concentration at 72 h: 56 nM
[1]; [11]
  concentration at 72.03 h: 63 nM
[1]; [12]
  concentration at 71.97 h: 42 nM
[1]; [13]
  concentration at 168 h: 31 nM
[1]; [14]
  concentration at 167.92 h: 25 nM
  concentration at 671.96 h: 3.9 nM
  concentration at 672 h: 5.3 nM
  concentration at 671.83 h: 2.8 nM
[1]; [15]
  concentration at 168 h: 37 nM
[1]; female, New Zealand white, rabbit, in vivo, iv, Serum concentration, rabbit 10, 0.67 h
  concentration at 0.67 h: 1990 nM
[1]; female, New Zealand white, rabbit, in vivo, iv, Serum concentration, rabbit 11, 0.77 h
  concentration at 0.77 h: 1770 nM
[1]; female, New Zealand white, rabbit, in vivo, iv, Serum concentration, rabbit 12, 0.60 h
  concentration at 0.6 h: 1820 nM
[2]
  concentration at 17 wk: 0.16 ± 0.058 ng/mL
[3]
  Computed maintenance dose: 1.3 µg/kg
  Computed loading dose: 7.5 µg/kg
  Daily maintenance dose: 8.4 µg/kg
  Loading dose: 47 µg/kg

## O=S(=O)(c1ccc(O)cc1)c1ccc(O)cc1 [BPS, bisphenol S]
[1]; IV mixture dosing, NCA, n=12
  CL: 72.5 mL/min/kg
  MRT: 1.26 h
[1]; rabbit 1, 0.30 h
  Serum concentration: 2080 nM
[1]; rabbit 1, 4.38 h
  Serum concentration: 25 nM
[1]; rabbit 1, 24.03 h
  Serum concentration: < 4 nM
[1]; rabbit 2, 0.28 h
  Serum concentration: 4060 nM
[1]; rabbit 2, 4.05 h
  Serum concentration: 29 nM
[1]; rabbit 3, 0.35 h
  Serum concentration: 3380 nM
[1]; rabbit 3, 4.05 h
  Serum concentration: 65 nM
[1]; rabbit 4, 0.62 h
  Serum concentration: 1030 nM
[1]; rabbit 4, 8.33 h
  Serum concentration: 22 nM
[1]; rabbit 4, 72.00 h
  Serum concentration: < 4 nM
[1]; rabbit 5, 0.75 h
  Serum concentration: 1230 nM
[1]; rabbit 5, 8.62 h
  Serum concentration: 15 nM
[1]; rabbit 5, 72.03 h
  Serum concentration: < 4 nM
[1]; rabbit 6, 0.57 h
  Serum concentration: 1840 nM
[1]; rabbit 6, 7.98 h
  Serum concentration: 22 nM
[1]; rabbit 6, 71.97 h
  Serum concentration: < 4 nM
[1]; rabbit 7, 1.13 h
  Serum concentration: 370 nM
[1]; rabbit 7, 11.98 h
  Serum concentration: 8.5 nM
[1]; rabbit 8, 1.12 h
  Serum concentration: 290 nM
[1]; rabbit 8, 12.02 h
  Serum concentration: 6 nM
[1]; rabbit 9, 1.03 h
  Serum concentration: 410 nM
[1]; rabbit 9, 11.97 h
  Serum concentration: 7.4 nM
[1]; rabbit 11, 2.08 h
  Serum concentration: 110 nM
[1]; rabbit 12, 2.08 h
  Serum concentration: 200 nM
[1]; serum, IV mixture dosing, NCA, n=12
  AUC0−inf: 2.41 µM·h
[1]; serum, IV mixture dosing, NCA, n=12, doses in Table 2 r3, BPSG after BPS dosing
  Cmax: 4060 nM
[2]; estimated from total BPS and 7% unconjugated fraction, targeted CSS 1 ng/mL
  Mean serum concentration of (unconjugated) BPS, estimated: 0.98 ng/mL
[3]
  Computed maintenance dose: 122 µg/kg
  Computed loading dose: 32 µg/kg
  Daily maintenance dose: 122 µg/kg
  Loading dose: 32 µg/kg

## O=C(O)C(F)(F)C(F)(F)C(F)(F)C(F)(F)C(F)(F)C(F)(F)C(F)(F)F [PFOA, perfluorooctanoic acid]
[1]; [4]
  AUC(0-inf): 27.4 µM·h
  Cmax: 2330 nM
  MRT: 18.7 h
  clearance: 0.121 mL/min/kg
  half-life: 31.8 h
[1]; [5]
  Vd: 0.135 L/kg
[1]; [6]
  Vd: 0.332 L/kg
[1]; female, New Zealand white, rabbit, in vivo, iv, Serum concentration, rabbit 1, 0.30 h
  concentration at 0.3 h: 1870 nM
[1]; female, New Zealand white, rabbit, in vivo, iv, Serum concentration, rabbit 1, 4.38 h
  concentration at 4.38 h: 1070 nM
[1]; [7]
  concentration at 24.03 h: 240 nM
[1]; female, New Zealand white, rabbit, in vivo, iv, Serum concentration, rabbit 2, 0.28 h
  concentration at 0.28 h: 2100 nM
[1]; female, New Zealand white, rabbit, in vivo, iv, Serum concentration, rabbit 2, 4.05 h
  concentration at 4.05 h: 1020 nM
[1]; [8]
  concentration at 24 h: 160 nM
[1]; female, New Zealand white, rabbit, in vivo, iv, Serum concentration, rabbit 3, 0.35 h
  concentration at 0.35 h: 2330 nM
[1]; female, New Zealand white, rabbit, in vivo, iv, Serum concentration, rabbit 3, 4.05 h
  concentration at 4.05 h: 1450 nM
[1]; [9]
  concentration at 24 h: 290 nM
[1]; female, New Zealand white, rabbit, in vivo, iv, Serum concentration, rabbit 4, 0.62 h
  concentration at 0.62 h: 1700 nM
[1]; [10]
  concentration at 72 h: 60 nM
[1]; female, New Zealand white, rabbit, in vivo, iv, Serum concentration, rabbit 5, 0.75 h
  concentration at 0.75 h: 1860 nM
[1]; [11]
  concentration at 72.03 h: 34 nM
[1]; female, New Zealand white, rabbit, in vivo, iv, Serum concentration, rabbit 6, 0.57 h
  concentration at 0.57 h: 1670 nM
[1]; [12]
  concentration at 71.97 h: 31 nM
[1]; female, New Zealand white, rabbit, in vivo, iv, Serum concentration, rabbit 7, 11.98 h
  concentration at 11.98 h: 840 nM
[1]; [13]
  concentration at 168 h: 5.3 nM
[1]; female, New Zealand white, rabbit, in vivo, iv, Serum concentration, rabbit 8, 12.02 h
  concentration at 12.02 h: 520 nM
[1]; [14]
  concentration at 167.92 h: 4.3 nM
  concentration at 671.96 h: < 0.24 nM
  concentration at 672 h: < 0.24 nM
  concentration at 671.83 h: < 0.24 nM
[1]; female, New Zealand white, rabbit, in vivo, iv, Serum concentration, rabbit 9, 11.97 h
  concentration at 11.97 h: 590 nM
[1]; [15]
  concentration at 168 h: 3 nM
[2]
  concentration at 17 wk: 43 ± 9.4 ng/mL
[3]
  Computed maintenance dose: 9.5 µg/kg
  Computed loading dose: 10 µg/kg
  Daily maintenance dose: 0.18 µg/kg
  Loading dose: 0.19 µg/kg
